Data reported in US5332733A, “Heterocyclically substituted piperazinoakylbenzoxazine and piperazinoalkylbenzothiazine compounds, processes for preparing them, and medicaments containing them” (Kali-Chemie Pharma GmbH, priority 1990, dated 1994).
Read-outs that look alike come from different tables or passages of the source.

Tests used:
histamine-(H1)-receptor = molecular target: T1, histamine-(H1)-receptor (Cavia porcellus, UniProt P31389); experiment: Histamine-(H1)-receptor antagonism in vitro, histamine-induced contractions of isolated ileum; format: cell-based, guinea pig (Dunkin Hartley); details: test substance 10^-6 mole/l, histamine 5 × 10^-6 mole/l
T1 construct: Segments of the ileum 1.5 cm long from Dunkin Hartley guinea pigs; from tissue; host or cells: isolated ileum of Dunkin Hartley guinea pigs
T1 sequence (P31389 whole entry): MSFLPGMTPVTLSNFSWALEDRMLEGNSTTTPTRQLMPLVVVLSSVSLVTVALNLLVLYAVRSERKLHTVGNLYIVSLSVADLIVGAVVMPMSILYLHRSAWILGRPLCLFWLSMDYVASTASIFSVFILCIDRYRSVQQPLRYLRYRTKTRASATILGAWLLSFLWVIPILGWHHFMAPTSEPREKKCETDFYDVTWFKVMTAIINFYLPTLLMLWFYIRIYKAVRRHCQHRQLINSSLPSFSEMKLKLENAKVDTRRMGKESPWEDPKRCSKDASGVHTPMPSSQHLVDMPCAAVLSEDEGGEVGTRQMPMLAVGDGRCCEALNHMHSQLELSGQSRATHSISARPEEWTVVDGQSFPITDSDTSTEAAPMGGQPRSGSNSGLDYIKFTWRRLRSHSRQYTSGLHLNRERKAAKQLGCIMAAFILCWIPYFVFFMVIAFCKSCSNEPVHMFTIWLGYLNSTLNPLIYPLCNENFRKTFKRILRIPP
Procedure: 3. Investigation of Anti-Histamine-(H1) Effect Based on Histamine-(H1)-Receptor Antagonism In Vitro
To investigate the histamine-(H1)-receptor antagonism of the test substances, the inhibiting effect of the substances on histamine-induced contractions of the smooth muscle was determined in vitro on the isolated organ. Isolated strips of organ from the ileum are suitable for this purpose. In an organ bath of physiological saline solution the smooth muscle strips react to the addition of histamine by contracting. […] The extent of regression of the contraction is an indication of the anti-histamine-(H1) activity of the compounds. The investigation was carried out analogously to the method originally described by Magnus (Pfluegers Arch. 102, 123 (1904)).
Procedure for determining the smooth muscle contraction inhibiting effect on isolated guinea pig ileum induced by a 5×10^-6 molar histamine concentration
Segments of the ileum 1.5 cm long from Dunkin Hartley guinea pigs having a body weight of 300 500 g were used for the test. Each strip was placed in an organ bath of 10 ml of physiological saline solution according to Krebs-Henseleit and attached to a conventional apparatus for isotonic measurement of changes in length of the ileum strips (automated Celaster measuring apparatus), so that the tissue was under 1 g of tension. The bath was kept at a pH of 7.4 and gassed with a mixture of 5% CO2 and 95% O2. After an equilibration phase, an isotonic contraction of the tissue was induced by adding histamine in a final concentration of 5×10^-6 mole/liter and washing it out again after a contact time of 30 seconds. Only tissues samples from which three reproducible contractions were obtained at 10 minute intervals were used in the subsequent test. The test substances were then added in a final concentration of 10^-6 mole/liter, and after 30 seconds contact time histamine was again added up to a concentration of 5×10^-6 mole/liter. The resulting contractions were measured over 30 seconds. The tissue was then washed several times over a period of 10 minutes. Histamine was then added again to stimulate a contraction. The resulting contractions were again measured over 30 seconds. The difference between the amplitude of the contraction obtained by histamine addition alone and the amplitude of the contraction obtained in the presence of the test substance was determined and expressed in terms of % inhibition.
The inhibiting effects on the contractions induced by histamine 30 seconds after administration of the test substance and on the contractions induced by the addition of histamine 10 minutes later are listed in the table.

[1] = test system: histamine-induced anaphylactoid cutaneous reaction; experiment: Inhibition of histamine-induced anaphylactoid cutaneous reaction in rats; format: in vivo, Sprague-Dawley rats; details: Rattus norvegicus, 1 h, 2 × 10^-5 mole/kg per os, one hour before ovalbumin challenge
Procedure: (§1) 1. Determining Inhibition of Passive Cutaneous Anaphylaxis (PCA) and Histamine-Induced Anaphylactoid Cutaneous Reaction
(§2) The inhibition of the passive cutaneous anaphylaxis and of the anaphylactoid cutaneous reaction induced by histamine was determined as follows:
(§3) Sprague-Dawley rats having a body weight of 150-180 g were injected intradermally in one flank with 50 μl of a 1:75 dilution of the IgE-rich ovalbumin antiserum in physiological saline solution to passively sensitize them to ovalbumin.
(§4) 24 hours after sensitization a solution of 8.25 mg/kg of ovalbumin and 26.4 mg/kg of a blue dye (Evans's Blue) was administered to the rats intravenously according to Martin et al. to trigger passive cutaneous anaphylaxis.
To determine the histamine-induced anaphylactoid skin reaction, the animals are injected intradermally in the flank opposite to the antiserum administration with 50 μl of a physiological saline solution containing 0.8 mg/ml histamine directly before the intravenous injection of the solution containing the ovalbumin and the blue dye.
(§5) On the day of the experiment the test substances were dissolved in distilled water which contained 1 vol. % dimethylformamide and 1 vol. % of Tween™ 20 (=polyoxyethylene (20) sorbitan monolaurate). One hour before administration of the ovalbumin challenge, each animal was orally administered 2×10^-5 mole/kg of test substance in 0.5 ml of solution. For comparison purposes a control group received only the solvent.
(§6) The edematous anaphylactic (PCA) and anaphylactoid (histamine-induced) reactions caused by the stimulation of the intravenous ovalbumin injection, which manifested themselves by edema formation, swelling and exudation of blue dye, were evaluated 30 minutes after their initiation by the intravenous ovalbumin injection. This was done by visually determining the extent to which the blue dye emerged at the sites of edema formation. The percentage inhibition of anaphylactic and anaphylactoid reactions induced by the test substances in comparison with the reactions of the control animals not treated with any test substance was determined using comparison scales.
(§7) The results obtained using compounds of formula I according to the foregoing test methods are shown in the following Table A. The example numbers given for the compounds of formula I relate to the subsequent preparative examples.

[2] = test system: passive cutaneous anaphylaxis (PCA); experiment: Inhibition of passive cutaneous anaphylaxis (PCA) in rats; format: in vivo, Sprague-Dawley rats; details: Rattus norvegicus, 1 h, 2 × 10^-5 mole/kg per os, one hour before ovalbumin challenge
Procedure: as §1
The PCA reaction is carried out following the methods described by Goose et al. (J. N. Immunology 16 (1969), 749) and by Martin et al. (Arch. Pharmacol. 316 (1981), 186).
The IgE-rich ovalbumin antiserum used in the test was obtained from immunized Brown-Norway rats. The were immunized with an intraperitoneal injection of a mixture of 100 μg of ovalbumin with a Bordetella pertussis suspension (Vaxicoq™, Manufactured by Institute Merieux, containing 5×10^9 organisms and 1.25 mg Al(OH)3). After 20 days the animals were re-immunized with a further intraperitoneal injection of a solution of 10 μg ovalbumin in 0.5 ml physiological saline solution. After a further four days the blood was removed from the animals and centrifuged. The resulting antiserum was stored at -20° C. until use.
as §2, §3, §4, §5, §6, §7

mice = details: mouse, in vivo, 1440 min
Procedure: 2. Determination of Minimum Toxic Dose
Maximum doses of 300 mg/kg of the test substance were administered orally to male mice weighing 20-25 g. The animals were observed carefully for 3 hours for toxicity symptoms. In addition, all symptoms and deaths were recorded over a period of 24 hours after administration. Associated symptoms were also observed and recorded. If death or severe toxic symptoms were observed, additional mice were administered increasingly lower doses. The lowest dose which produced death or severe toxic symptoms is given in the following Table B as the minimum toxic dose.

[3] = test system: PAF-induced aggregation of rabbit blood platelets; experiment: Anti-PAF activity in vitro, PAF-induced platelet aggregation; format: cell-based, rabbit (New Zealand hybrids); details: Oryctolagus cuniculus, test substance 10^-5 mole/l, pH 7.4
Description: 4. Determination of Anti-PAF Activity In Vitro
PAF (=Platelet Activating Factor) is a phospholipid mediator which has many effects. Activation of platelet aggregation induces protracted broncho-contraction and hyper-reactivity of the air paths.
In this test the effect of the test substances on platelet aggregation induced by adding PAF to a suspension of platelets obtained from rabbit blood is investigated using the method described by Mikashima et al. (Jap. J. Pharmacol. 44 (1987) 387-391).
A suspension of platelets obtained from rabbit blood containing 4×10^9 platelets/ml in a modified Tyrode buffer solution (=Tyrode solution with 1.3 mM/l CaCl2 and 2.5 g/l gelatine added) adjusted to pH 7.4 was used. Tyrode solution is an aqueous solution containing 136.9 mmoles NaCl, 2.68 mmoles KCl, 2.31 mmoles CaCl2, 1.0 mmole MgCl2, 11.9 mmoles NaHCO3, 1.45 mmoles NaH2 PO4 and 5.55 mmoles glucose per liter. The platelets were obtained from 10 ml blood samples from each of three rabbits (New Zealand hybrids, body weight 3-4 kg). For this the blood samples were treated with ethylenediamine tetraacetic acid and washed according to the method of Artley et al. (Brit. J. Hematol. 19 (1970), 7-17). A platelet-rich plasma was then initially separated by centrifuging (20 minutes at 400×g). The blood platelets were separated from the plasma by recentrifuging for 15 minutes at 1,400×g. The platelets remaining as sediment after centrifuging were resuspended in a Tyrode buffer solution (but without calcium). 0.4 mmole of lysine acetylsalicylate was then added, and after 15 minutes the platelets were sedimented again. The sediment was resuspended in the aforementioned modified Tyrode buffer solution, and the number of platelets in the resulting suspension was adjusted to the desired content.
A 40×10^-9 molar PAF solution was used as a reagent. This solution was made from a 1.8×10^-3 molar stock solution in chloroform. For this purpose a 10 μl sample of the stock solution was evaporated to dryness and redissolved in 180 μl of the modified Tyrode solution to which 0.25% of lipid-free bovine serum albumin had been added. From this 10^-5 molar working solutions were then prepared and stored frozen. Samples of these solutions were appropriately diluted for the tests.
To carry out the test 50 μl of the platelet suspension and 10 μl of a 40×10^-5 molar solution of the compound being investigated were added with stirring (1,000 rpm) to 330 μl of the modified Tyrode buffer solution in an aggregation tube provided with a small magnetic stirrer. This corresponds to a final test substance concentration of 10^-5 mole/l. After 90 seconds preincubation time, 10 μl of the PAF preparation were added. The aggregation occurring in the aggregation tubes was measured over 4-5 minutes with the aid of a computerized aggregometer.
The aggregation which occurred in test tubes containing only platelet suspension was evaluated as 0%, whereas the aggregation which occurred in test tubes containing platelet suspension and PAF preparation was evaluated as 100%. The aggregation which still occurred during the inhibition of the PAF induced platelet aggregation due to the addition of the test substances was measured, and the resulting aggregation inhibition was calculated therefrom in %.

[4] = 0.5 min, after 30 seconds, read-out: % inhibition of histamine-induced ileum contractions after 30 seconds
[5] = 10 min, after 10 minutes (after washing), read-out: % inhibition of histamine-induced ileum contractions after 10 minutes

SMILES	inhibition at 1 µM (histamine-(H1)-receptor; [4]) [%]	inhibition at 1 µM (histamine-(H1)-receptor; [5]) [%]	inhibition in vivo at 20 µmol/kg [1] [%]	inhibition in vivo at 20 µmol/kg [2] [%]	Minimum toxic dose (mice) [mg/kg]	inhibition at 10 µM [3] [%]
Cc1ccnc(N2CCN(CCCCC3Oc4ccc(Cl)cc4NC3=O)CC2)c1 (centres unmarked) [Example 23]	70	83				
Cc1ccc(N2CCN(CCCCC3Sc4ccccc4NC3=O)CC2)nc1 (centres unmarked) [Example 13]	42	15	30	55	100	
O=C1Nc2ccccc2SC1CCCCN1CCN(c2ncccn2)CC1 (centres unmarked) [Example 12]			50	80	300	
Cc1ccnc(N2CCN(CCCC3Sc4cc(C)ccc4NC3=O)CC2)c1 (centres unmarked) [Example 10]	42	36	35	70		74
O=C1Nc2ccccc2SC1CCCCN1CCN(c2ccccn2)CC1 (centres unmarked) [Example 17]			35	70		
Cc1ccnc(N2CCN(CCCCC3Sc4cc(C)c(C)cc4NC3=O)CC2)c1 (centres unmarked) [Example 21]	50	89	55	78		37
COc1cccc(N2CCN(CCCCC3Sc4ccccc4NC3=O)CC2)n1 (centres unmarked) [Example 16]	30	27	45	50	300	
Cc1ccnc(N2CCN(CCCCC3Sc4ccccc4NC3=S)CC2)c1 (centres unmarked) [Example 2, 2-{4-[4-(4-methylpyridin-2-yl)-piperazin-1-yl]butyl}-2H-1,4-benzothiazine-3(4H) -thione]	51	60			> 300	60
Cc1ccnc(N2CCN(CCCCC3Oc4ccc(C)cc4NC3=O)CC2)c1 (centres unmarked) [Example 24]	70	86	60	80		

Second part, led by results:

inhibition at 1 µM (histamine-(H1)-receptor; [4]) [%]	inhibition at 1 µM (histamine-(H1)-receptor; [5]) [%]	SMILES	inhibition in vivo at 20 µmol/kg [1] [%]	inhibition in vivo at 20 µmol/kg [2] [%]	Minimum toxic dose (mice) [mg/kg]	inhibition at 10 µM [3] [%]
50	32	Cc1ccnc(N2CCN(CCCCC3Sc4cc(O)ccc4NC3=O)CC2)c1 (centres unmarked) [Example 25]	15	50		
60	42	COc1ccc2c(c1)SC(CCCCN1CCN(c3cc(C)ccn3)CC1)C(=O)N2 (centres unmarked) [Example 19, 7-methoxy-2-{4-[4-(4-methylpyridin-2-yl)-piperazin-1-yl]-butyl}-2H-1,4-benzothiazine-3(4H)-one]	60	80		
78	83	Cc1ccnc(N2CCN(CCCCC3Sc4cc(F)ccc4NC3=O)CC2)c1 (centres unmarked) [Example 18]	53	80		76
66	28	Cc1ccnc(N2CCN(CCCCC3Sc4ccccc4N(C)C3=O)CC2)c1 (centres unmarked) [Example 3, 4-methyl-2-{4-[4-(4-methylpyridin-2-yl)-piperazin-1-yl]butyl}-2H-1,4-benzothiazine-3(4H)-one]	55	80		
16	72	Cc1ccnc(N2CCN(CCCCC3Sc4cc(Cl)ccc4NC3=O)CC2)c1 (centres unmarked) [Example 27]	35	60		35
38	45	CCCCN1C(=O)C(CCCCN2CCN(c3cc(C)ccn3)CC2)Sc2ccccc21 (centres unmarked) [Example 28]	40	65		45
